# In patent publication EP0776155B1, “DELIVERY OF EXOGENOUS CHEMICAL SUBSTANCES TO PLANT TISSUES” (MONSANTO COMPANY, priority 1994, dated 1996):
# Legend:
# Type in all cases: in vivo
# [1] = test system: velvetleaf (Abutilon theophrasti, ABUTH); experiment: Example 11: percent control, time between abrasion and glyphosate application varied (hours); conditions: glyphosate rate (kg a.e./ha)
# Method: In these Examples illustrative of the invention, velvetleaf (Abutilon theophrasti, ABUTH) seeds were planted in 4-inch (10.1 cm) square pots containing 100% silt loam soil to which 35 grams/cu ft (1.25 kg/m^3) IBDU fertilizer was added, and covered with a mix of 50% Rediearth plus 50% silt loam. The pots were sub-irrigated and the seedlings thinned after emergence to 2 plants per pot.
# Abrasion was applied using propelled 200-mesh garnet exactly as described for Examples 1-9. The herbicide used in these Examples was glyphosate as its isopropylamine salt, applied as diluted MON 2139, exactly as described for Examples 1-9.
# The time period between abrasion and herbicide application was varied as follows. In Example 11, all abrasion treatments were applied within a short period of time, and herbicide applications were made 2, 4 and 24 hours after abrasion. A set of abraded plants received no herbicide at any time. In addition, herbicide applications were made to unabraded plants at two times: (i) at the time of abrasion, and (ii) 24 hours after the time of abrasion. In Example 12, all herbicide applications were made within a short period of time, and abrasion was applied 5, 2 and 1 days before herbicide application. In addition, herbicide application was made to unabraded plants.
# Three replications were performed of every treatment. After treatment, all plants were placed in the greenhouse for the remainder of the experiment, and sub-irrigated. The first replicate was placed in one block in order of the treatment list for ease of viewing and the remaining replicates were randomly placed in two separate blocks.
# After an interval of 12-14 days after herbicide application, a visual evaluation was performed to estimate herbicidal efficacy as percent control of treated plants compared to untreated check plants.
# [2] = test system: common lambsquarter (Chenopodium album, CHEAL); experiment: Example 46: percent control, various propelled particulate abrasives, glyphosate spray; conditions: glyphosate 0.11 kg a.e./ha, 200-mesh
# Method: In this Example illustrative of the invention, common lambsquarter (Chenopodium album, CHEAL) seeds were planted in 4-inch (10.1-cm) square pots filled with a soil mix consisting of 50% Metromix 350 plus 50% silt loam to which 100 g/cu ft (3.57 kg/m^3) Osmocote fertilizer were added, and the seeds were covered with the same soil mix without added fertilizer. […] The same settings were maintained before and after treatment.
# Physical injury in this Example was inflicted on the above-ground portions of the plants, approximately 2 weeks after planting, by various propelled particulate abrasives. This was applied using the same sandblaster as used in Example 47. For this Example, air pressure was maintained at 40 lb/sq inch (276 kiloPascals), the nozzle was set 16 inches (41 cm) above the plant canopy, track speed was under 1 mile/hour (1.6 km/hr) and one pass was made with the sandblaster. […] Some plants received no abrasion.
# Materials used as abrasive agents in this study were: • garnet, 200-mesh as used in Example 47 • glass cullet, 1040 supplied by Universal • glass cullet, 1035 supplied by Universal • aluminum oxide type B, 120-mesh • white silica sand, 1.0 profile size, supplied by Unimin • glass beads, 140-270 mesh • Scott's Lawn & Garden fertilizer granules ground to a fine powder using a Retsch 2M-1 mill
# Plants were then assigned to different herbicide treatments in a factorial experimental design with 2 replications. All plants for each herbicide treatment were sprayed at the same time using a track sprayer calibrated to deliver 20 gallons/acre (187 liters/hectare) water with an 8002E nozzle having a 50-mesh screen, 16 inches (41 cm) above the plant canopy. In these Examples the herbicide used was glyphosate as its isopropylamine salt, in the form of the aqueous concentrate formulation MON 2139 of Monsanto Company. Spray solutions were made from stock solutions prepared by dilution of MON 2139 in water.
# After an interval of 12 days, a visual evaluation was performed to estimate herbicidal efficacy as percent control of treated plants compared to untreated check plants.
# [3] = test system: silvergrass (Vulpia sp., VLPSS); experiment: Example 51: field experiment, percent control, bruising or blasting then glyphosate spray; conditions: 14 days after glyphosate application
# Method: (§1) In this Example illustrative of the invention, a field experiment was conducted in the Australian Capital Territory on 5-10 cm high vegetation consisting primarily of white flatweed (Hypochoeris microcephala, HRYMI) at the rosette stage of growth and silvergrass (Vulpia sp., VLPSS) at the 1-3 tiller stage. Plots were established, 2 m wide and 10 m long, with 3 replications of each treatment.
# (§2) Plots received either no physical injury, or one of two injury treatments, a prior art method described herein as "bruising" and a method of the present invention described herein as "blasting". Bruising involved driving a 2 metric ton four-wheel drive vehicle fitted with rubber tires, twice over the plot in opposite directions. For blasting, a hand-held sandblaster was used having a container of capacity 1000 cm^3 slung under the gun body. The sandblaster was made of die-cast aluminum alloy and equipped with a 6 mm nozzle. The operating pressure was 95 lb/sq inch (655 kPa). The abrasive used was a commercial product consisting of fine glass particles.
# (§3) Within an hour after bruising or blasting, plots received an application of glyphosate as its isopropylamine salt in the form of the aqueous concentrate formulation sold in Australia as Roundup® herbicide, diluted appropriately in water. Application was made using a hand-held boom sprayer fitted with 11001 nozzles, operating at 250 kPa pressure and delivering 90 liters/ha spray volume.
# (§4) After an interval of 14 days, a visual evaluation was performed to estimate herbicidal efficacy as percent control of plants in treated plots compared to untreated check plots.
# [4] = test system: white flatweed (Hypochoeris microcephala, HRYMI); experiment: as above; conditions: 14 days after glyphosate application
# Method: as §1, §2, §3, §4
# [5] = glyphosate rate 0.18 kg a.e./ha, injury treatment blasting
# [6] = glyphosate rate 0.18 kg a.e./ha, injury treatment bruising
# [7] = glyphosate rate 0.18 kg a.e./ha, injury treatment none
# [8] = glyphosate rate 0.25 kg a.e./ha, injury treatment blasting
# [9] = glyphosate rate 0.25 kg a.e./ha, injury treatment bruising
# [10] = glyphosate rate 0.25 kg a.e./ha, injury treatment none
# [11] = glyphosate rate 0.36 kg a.e./ha, injury treatment blasting
# [12] = glyphosate rate 0.36 kg a.e./ha, injury treatment bruising
# [13] = glyphosate rate 0.36 kg a.e./ha, injury treatment none
compound,measurement,setting,value
"O=C(O)CNCP(=O)(O)O [glyphosate, N-phosphonomethylglycine]",percent control of ABUTH 14 days after glyphosate application,"[1]; abraded before 0 h, glyphosate 0.056 kg a.e./ha",70%
same,percent control of ABUTH 14 days after glyphosate application,"[1]; abraded before 0 h, glyphosate 0.11 kg a.e./ha",78%
same,percent control of ABUTH 14 days after glyphosate application,"[1]; abraded before 2 h, glyphosate 0.056 kg a.e./ha",73%
same,percent control of ABUTH 14 days after glyphosate application,"[1]; abraded before 2 h, glyphosate 0.11 kg a.e./ha",85%
same,percent control of ABUTH 14 days after glyphosate application,"[1]; abraded before 4 h, glyphosate 0.056 kg a.e./ha",79%
same,percent control of ABUTH 14 days after glyphosate application,"[1]; abraded before 4 h, glyphosate 0.11 kg a.e./ha",94%
same,percent control of ABUTH 14 days after glyphosate application,"[1]; abraded before 24 h, glyphosate 0.056 kg a.e./ha",45%
same,percent control of ABUTH 14 days after glyphosate application,"[1]; abraded before 24 h, glyphosate 0.11 kg a.e./ha",76%
same,percent control of CHEAL 12 days after glyphosate application,"[2]; aluminum oxide, abrasive rate* (kg/ha) 143, calculated based on garnet",46%
same,percent control of CHEAL 12 days after glyphosate application,"[2]; aluminum oxide, abrasive rate* (kg/ha) 256, calculated based on garnet",50%
same,percent control of CHEAL 12 days after glyphosate application,"[2]; fertilizer, abrasive rate* (kg/ha) 143, calculated based on garnet",25%
same,percent control of CHEAL 12 days after glyphosate application,"[2]; fertilizer, abrasive rate* (kg/ha) 256, calculated based on garnet",34%
same,percent control of CHEAL 12 days after glyphosate application,"[2]; garnet, abrasive rate* (kg/ha) 143",52%
same,percent control of CHEAL 12 days after glyphosate application,"[2]; garnet, abrasive rate* (kg/ha) 256",37%
same,percent control of CHEAL 12 days after glyphosate application,"[2]; glass beads, abrasive rate* (kg/ha) 143, calculated based on garnet",62%
same,percent control of CHEAL 12 days after glyphosate application,"[2]; glass beads, abrasive rate* (kg/ha) 256, calculated based on garnet",43%
same,percent control of CHEAL 12 days after glyphosate application,"[2]; glass cullet, 1035, abrasive rate* (kg/ha) 143, calculated based on garnet",28%
same,percent control of CHEAL 12 days after glyphosate application,"[2]; glass cullet, 1035, abrasive rate* (kg/ha) 256, calculated based on garnet",48%
same,percent control of CHEAL 12 days after glyphosate application,"[2]; glass cullet, 1040, abrasive rate* (kg/ha) 143, calculated based on garnet",38%
same,percent control of CHEAL 12 days after glyphosate application,"[2]; glass cullet, 1040, abrasive rate* (kg/ha) 256, calculated based on garnet",20%
same,percent control of CHEAL 12 days after glyphosate application,"[2]; white silica sand, abrasive rate* (kg/ha) 143, calculated based on garnet",38%
same,percent control of CHEAL 12 days after glyphosate application,"[2]; white silica sand, abrasive rate* (kg/ha) 256, calculated based on garnet",50%
same,percent control VLPSS,[3]; [5],77%
same,percent control VLPSS,[3]; [6],78%
same,percent control VLPSS,[3]; [7],65%
same,percent control VLPSS,[3]; [8],82%
same,percent control VLPSS,[3]; [9],83%
same,percent control VLPSS,[3]; [10],85%
same,percent control VLPSS,[3]; [11],98%
same,percent control VLPSS,[3]; [12],83%
same,percent control VLPSS,[3]; [13],95%
same,percent control HRYMI,[4]; [5],77%
same,percent control HRYMI,[4]; [6],77%
same,percent control HRYMI,[4]; [7],62%
same,percent control HRYMI,[4]; [8],100%
same,percent control HRYMI,[4]; [9],80%
same,percent control HRYMI,[4]; [10],78%
same,percent control HRYMI,[4]; [11],100%
same,percent control HRYMI,[4]; [12],93%
same,percent control HRYMI,[4]; [13],92%
